The CheMixHub viscosity set

Test: xn = mol fraction of the nth substance listed

OCCOCCOCCO + CN(C)C=O
viscosity [mPa·s], 101 kPa
Conditions | 293.15 K | 298.15 K | 303.15 K | 308.15 K | 313.15 K | 318.15 K
x1 = 0.025 | 1 | 0.933 | 0.868 | 0.847 | 0.768 | 0.727
x1 = 0.0513 | 1.15 | 1.07 | 0.987 | 0.952 | 0.876 | 0.815
x1 = 0.0791 | 1.33 | 1.24 | 1.13 | 1.08 | 0.997 | 0.921
x1 = 0.1085 | 1.54 | 1.42 | 1.31 | 1.22 | 1.15 | 1.05
x1 = 0.1396 | 1.81 | 1.68 | 1.51 | 1.39 | 1.32 | 1.21
x1 = 0.1726 | 2.12 | 1.95 | 1.76 | 1.6 | 1.52 | –
x1 = 0.2077 | 2.53 | 2.3 | 2.07 | 1.85 | 1.76 | –
x1 = 0.245 | 3.02 | 2.74 | 2.44 | 2.16 | 2.06 | –
x1 = 0.2848 | 3.64 | 3.27 | 2.88 | 2.53 | 2.41 | –
x1 = 0.3274 | 4.45 | 3.93 | 3.45 | 3 | 2.85 | –
x1 = 0.373 | 5.37 | 4.74 | 4.12 | 3.55 | 3.33 | –
x1 = 0.422 | 6.64 | 5.77 | 4.96 | 4.25 | 3.96 | –
x1 = 0.4748 | 8.33 | 7.17 | 6.09 | 5.12 | 4.79 | –
x1 = 0.5318 | 10.3 | 8.94 | 7.5 | 6.17 | 5.77 | –
x1 = 0.5935 | 12.9 | 10.9 | 9.08 | 7.6 | 6.92 | –
x1 = 0.6607 | 16.5 | 13.7 | 11.3 | 9.37 | 8.38 | –
x1 = 0.7339 | 21.2 | 17.4 | 14.2 | 11.6 | 10.3 | –
x1 = 0.8141 | 27.4 | 22.2 | 17.9 | 14.4 | 12.8 | –
x1 = 0.9024 | 35.5 | 28.6 | 22.7 | 17.6 | 15.8 | –

NC(N)=O + O
Conditions | viscosity [mPa·s]
293.15 K, 100 kPa, x1 = 0.00045 | 1.018
293.15 K, 100 kPa, x1 = 0.0009 | 1.027
293.15 K, 100 kPa, x1 = 0.0013 | 1.041
293.15 K, 101 kPa, x1 = 0.0003382 | 1.002
293.15 K, 101 kPa, x1 = 0.0005695 | 1.003
293.15 K, 101 kPa, x1 = 0.0009893 | 1.003
293.15 K, 101 kPa, x1 = 0.001265 | 1.004
293.15 K, 101 kPa, x1 = 0.00161 | 1.004
293.15 K, 101 kPa, x1 = 0.002015 | 1.005
293.15 K, 101 kPa, x1 = 0.002546 | 1.006
293.15 K, 101 kPa, x1 = 0.002806 | 1.006
293.15 K, 101 kPa, x1 = 0.0486 | 0.872
293.15 K, 101 kPa, x1 = 0.0994 | 0.991
293.15 K, 101 kPa, x1 = 0.1318 | 1.087
294.75 K, 101 kPa, x1 = 0.0219 | 0.9356
294.75 K, 101 kPa, x1 = 0.04201 | 1.072
294.75 K, 101 kPa, x1 = 0.05343 | 1.101
294.75 K, 101 kPa, x1 = 0.0565 | 1.157
298.15 K, 100 kPa, x1 = 0.00045 | 0.911
298.15 K, 100 kPa, x1 = 0.0009 | 0.927
298.15 K, 100 kPa, x1 = 0.0013 | 0.94
298.15 K, 101 kPa, x1 = 0.0003802 | 0.8909
298.15 K, 101 kPa, x1 = 0.0009168 | 0.8918
298.15 K, 101 kPa, x1 = 0.001355 | 0.8925
298.15 K, 101 kPa, x1 = 0.00169 | 0.893
298.15 K, 101 kPa, x1 = 0.001993 | 0.8935
298.15 K, 101 kPa, x1 = 0.00247 | 0.8943
298.15 K, 101 kPa, x1 = 0.00308 | 0.895
298.15 K, 101 kPa, x1 = 0.003109 | 0.8953
298.15 K, 101 kPa, x1 = 0.00368 | 0.8962
298.15 K, 101 kPa, x1 = 0.0259 | 0.939
298.15 K, 101 kPa, x1 = 0.0389 | 0.969
298.15 K, 101 kPa, x1 = 0.05204 | 1.035
298.15 K, 101 kPa, x1 = 0.08275 | 1.088
298.15 K, 101 kPa, x1 = 0.1302 | 1.252
298.15 K, 101 kPa, x1 = 0.156 | 1.348
298.15 K, 101 kPa, x1 = 0.2047 | 1.561
303.15 K, 100 kPa, x1 = 0.00045 | 0.824
303.15 K, 100 kPa, x1 = 0.0009 | 0.839
303.15 K, 100 kPa, x1 = 0.0013 | 0.849
303.15 K, 101 kPa, x1 = 0.000464 | 0.798
303.15 K, 101 kPa, x1 = 0.001107 | 0.799
303.15 K, 101 kPa, x1 = 0.001607 | 0.7999
303.15 K, 101 kPa, x1 = 0.002024 | 0.8005
303.15 K, 101 kPa, x1 = 0.002271 | 0.8009
303.15 K, 101 kPa, x1 = 0.002742 | 0.8016
303.15 K, 101 kPa, x1 = 0.003158 | 0.8024
303.15 K, 101 kPa, x1 = 0.003416 | 0.8028
308.15 K, 100 kPa, x1 = 0.00045 | 0.744
308.15 K, 100 kPa, x1 = 0.0009 | 0.755
308.15 K, 100 kPa, x1 = 0.0013 | 0.77
308.15 K, 101 kPa, x1 = 0.0003775 | 0.7197
308.15 K, 101 kPa, x1 = 0.0006463 | 0.7201
308.15 K, 101 kPa, x1 = 0.001149 | 0.721
308.15 K, 101 kPa, x1 = 0.001425 | 0.7214
308.15 K, 101 kPa, x1 = 0.001907 | 0.7223
308.15 K, 101 kPa, x1 = 0.002218 | 0.7227
308.15 K, 101 kPa, x1 = 0.002872 | 0.7238
308.15 K, 101 kPa, x1 = 0.003309 | 0.7246
308.15 K, 101 kPa, x1 = 0.018 | 0.65
308.15 K, 101.33 kPa, x1 = 0.0177 | 0.7612
308.15 K, 101.33 kPa, x1 = 0.03479 | 0.7944
308.15 K, 101.33 kPa, x1 = 0.05127 | 0.8302
308.15 K, 101.33 kPa, x1 = 0.06723 | 0.8754
308.15 K, 101.33 kPa, x1 = 0.08263 | 0.916
308.15 K, 101.33 kPa, x1 = 0.09755 | 0.9544
308.15 K, 101.33 kPa, x1 = 0.112 | 1.02
308.15 K, 101.33 kPa, x1 = 0.126 | 1.049
308.15 K, 101.33 kPa, x1 = 0.1395 | 1.077
313.15 K, 100 kPa, x1 = 0.00045 | 0.678
313.15 K, 100 kPa, x1 = 0.0009 | 0.692
313.15 K, 100 kPa, x1 = 0.0013 | 0.712
313.15 K, 101.33 kPa, x1 = 0.0177 | 0.6912
313.15 K, 101.33 kPa, x1 = 0.03479 | 0.7169
313.15 K, 101.33 kPa, x1 = 0.05127 | 0.7568
313.15 K, 101.33 kPa, x1 = 0.06723 | 0.7895
313.15 K, 101.33 kPa, x1 = 0.08263 | 0.8365
313.15 K, 101.33 kPa, x1 = 0.09755 | 0.8702
313.15 K, 101.33 kPa, x1 = 0.112 | 0.914
313.15 K, 101.33 kPa, x1 = 0.126 | 0.9479
313.15 K, 101.33 kPa, x1 = 0.1395 | 0.9819
318.15 K, 101 kPa, x1 = 0.018 | 0.533
318.15 K, 101.33 kPa, x1 = 0.0177 | 0.6293
318.15 K, 101.33 kPa, x1 = 0.03479 | 0.6557
318.15 K, 101.33 kPa, x1 = 0.05127 | 0.6939
318.15 K, 101.33 kPa, x1 = 0.06723 | 0.7263
318.15 K, 101.33 kPa, x1 = 0.08263 | 0.7712
318.15 K, 101.33 kPa, x1 = 0.09755 | 0.7978
318.15 K, 101.33 kPa, x1 = 0.112 | 0.8423
318.15 K, 101.33 kPa, x1 = 0.126 | 0.8735
318.15 K, 101.33 kPa, x1 = 0.1395 | 0.9047
323.15 K, 101.33 kPa, x1 = 0.0177 | 0.5841
323.15 K, 101.33 kPa, x1 = 0.03479 | 0.6023
323.15 K, 101.33 kPa, x1 = 0.05127 | 0.6485
323.15 K, 101.33 kPa, x1 = 0.06723 | 0.6694
323.15 K, 101.33 kPa, x1 = 0.08263 | 0.7012
323.15 K, 101.33 kPa, x1 = 0.09755 | 0.7261
323.15 K, 101.33 kPa, x1 = 0.112 | 0.7788
323.15 K, 101.33 kPa, x1 = 0.126 | 0.803
323.15 K, 101.33 kPa, x1 = 0.1395 | 0.8273
